Laboratory results from PubChem BioAssay AID330 (DTP/NCI, 2004).
Values joined by “and” are separate entries in the source; they are usually repeats but may differ in a detail not shown here. Identical values can stand only once. Toxic doses and inconclusive results are not listed. How the source made its calls: active means survival T/C of 150% or more; inactive means T/C below 125% in these data.

Tested on: P388 leukemia ip, CD2F1 mice, survival T/C
Assay: NCI In Vivo Anticancer Drug Screen. Data for tumor model P388 Leukemia (intraperitoneal) in CD2F1 (CDF1) mice
Settings: endpoint: median survival time, higher = longer survival
Summary of the method: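 Mice carrying the transplanted tumor received test compound or vehicle. Survival was recorded in each group, and the value is the treated-group measurement divided by that of the vehicle-treated control group.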

[1] = dose: 25.0 mg/kg/injection, schedule: Q01DX009 (ip), vehicle: Klucel (hydroxypropylcellulose) (HPC)
[2] = dose: 50.0 mg/kg/injection, schedule: Q01DX009 (ip), vehicle: Klucel (hydroxypropylcellulose) (HPC)
[3] = dose: 100.0 mg/kg/injection, schedule: Q01DX009 (ip), vehicle: Klucel (hydroxypropylcellulose) (HPC)
[4] = dose: 200.0 mg/kg/injection, schedule: Q01DX009 (ip), vehicle: Klucel (hydroxypropylcellulose) (HPC)
[5] = dose: 60.0 mg/kg/injection, schedule: Q01DX005 (ip), vehicle: Klucel (hydroxypropylcellulose) (HPC)
[6] = dose: 120.0 mg/kg/injection, schedule: Q01DX005 (ip), vehicle: Klucel (hydroxypropylcellulose) (HPC)
[7] = dose: 240.0 mg/kg/injection, schedule: Q01DX005 (ip), vehicle: Klucel (hydroxypropylcellulose) (HPC)
[8] = dose: 50.0 mg/kg/injection, schedule: Q01DX005 (ip), vehicle: saline with Tween-80
[9] = dose: 100.0 mg/kg/injection, schedule: Q01DX005 (ip), vehicle: saline with Tween-80
[10] = dose: 200.0 mg/kg/injection, schedule: Q01DX005 (ip), vehicle: saline with Tween-80

Measured: T/C

ON=C1CCCCCCC1
inactive: dose: 50.0 mg/kg/injection, schedule: Q01DX009 (ip), vehicle: suspension in saline 97 % of control | dose: 100.0 mg/kg/injection, schedule: Q01DX009 (ip), vehicle: suspension in saline 104 % of control | dose: 200.0 mg/kg/injection, schedule: Q01DX009 (ip), vehicle: suspension in saline 103 % of control | dose: 400.0 mg/kg/injection, schedule: Q01DX009 (ip), vehicle: suspension in saline 98 % of control

Cc1nc2c(ccc3cc4ccccc4cc32)cc1N(CCO)CCO
inactive: dose: 50.0 mg/kg/injection, schedule: Q01DX009 (ip), vehicle: saline + Tween-80 + alcohol 110 % of control | dose: 100.0 mg/kg/injection, schedule: Q01DX009 (ip), vehicle: saline + Tween-80 + alcohol 108 % of control | dose: 200.0 mg/kg/injection, schedule: Q01DX009 (ip), vehicle: saline + Tween-80 + alcohol 99 % of control

CCCCCN(CCNc1cc(OC)cc2cccnc12)C(C)CC (stereo not drawn)
inactive: dose: 12.5 mg/kg/injection, schedule: Q01DX005 (ip), vehicle: saline 112 % of control | dose: 25.0 mg/kg/injection, schedule: Q01DX005 (ip), vehicle: saline 103 % of control | dose: 50.0 mg/kg/injection, schedule: Q01DX005 (ip), vehicle: saline 101 % of control and 97 % of control | dose: 100.0 mg/kg/injection, schedule: Q01DX005 (ip), vehicle: saline 100 % of control

CCOC(=O)C1=C(Nc2ccc([N+](=O)[O-])cc2)CCCC1
inactive: dose: 1.56 mg/kg/injection, schedule: Q01DX009 (ip), vehicle: saline 93 % of control | dose: 3.12 mg/kg/injection, schedule: Q01DX009 (ip), vehicle: saline 95 % of control | dose: 6.25 mg/kg/injection, schedule: Q01DX009 (ip), vehicle: saline 95 % of control

Cc1c2ccn(Cc3ccccc3)cc2c(C)c2c1nc1ccccc12
inactive: dose: 19.25 mg/kg/injection, schedule: Q04DX002 (ip), vehicle: saline with Tween-80 121 % of control | dose: 38.5 mg/kg/injection, schedule: Q04DX002 (ip), vehicle: saline with Tween-80 113 % of control

Nc1ccc(C(=O)Nc2ccc(NC(=O)c3ccco3)c(O)c2)cc1
inactive: dose: 60.0 mg/kg/injection, schedule: Q01DX005 (ip), vehicle: saline with Tween-80 94 % of control | dose: 120.0 mg/kg/injection, schedule: Q01DX005 (ip), vehicle: saline with Tween-80 91 % of control | dose: 240.0 mg/kg/injection, schedule: Q01DX005 (ip), vehicle: saline with Tween-80 89 % of control

CC(O)CCCC(C)O (stereo not drawn)
inactive: dose: 50.0 mg/kg/injection, schedule: Q01DX009 (ip), vehicle: saline 102 % of control | dose: 100.0 mg/kg/injection, schedule: Q01DX009 (ip), vehicle: saline 112 % of control | dose: 200.0 mg/kg/injection, schedule: Q01DX009 (ip), vehicle: saline 109 % of control

O=[N+]([O-])c1ccc(S(=O)(=O)Nc2ccc(-c3ccccc3)cc2)cc1
inactive: dose: 100.0 mg/kg/injection, schedule: Q01DX009 (ip), vehicle: other 105 % of control | dose: 200.0 mg/kg/injection, schedule: Q01DX009 (ip), vehicle: other 100 % of control | dose: 400.0 mg/kg/injection, schedule: Q01DX009 (ip), vehicle: other 100 % of control

O=C1S/C(=C2\C(=O)N(CN3CCOCC3)c3ccc(Br)cc32)C(=O)N1CN1CCOCC1
inactive: dose: 50.0 mg/kg/injection, schedule: Q01DX005 (ip), vehicle: Klucel (hydroxypropylcellulose) (HPC) 100 % of control | dose: 100.0 mg/kg/injection, schedule: Q01DX005 (ip), vehicle: Klucel (hydroxypropylcellulose) (HPC) 106 % of control | dose: 200.0 mg/kg/injection, schedule: Q01DX005 (ip), vehicle: Klucel (hydroxypropylcellulose) (HPC) 102 % of control

CCCSCCC(C)(N)C(=O)O (stereo not drawn)
inactive: [1] 98 % of control | [2] 91 % of control | [3] 107 % of control | [4] 96 % of control

NC12CCC(c3ccccc31)c1ccccc12
inactive: [5] 95 % of control | [6] 102 % of control | [7] 93 % of control

CC(=O)Oc1cccc2c1C(=O)C1CC=CC(OC(C)=O)C1C2=O (stereo not drawn)
inactive: [5] 100 % of control | [6] 100 % of control | [7] 100 % of control

CCCCCCC(/C=C/c1ccccc1)=N\O
inactive: dose: 6.25 mg/kg/injection, schedule: Q01DX009 (ip), vehicle: Klucel (hydroxypropylcellulose) (HPC) 107 % of control | dose: 12.5 mg/kg/injection, schedule: Q01DX009 (ip), vehicle: Klucel (hydroxypropylcellulose) (HPC) 102 % of control | [1] 103 % of control and 104 % of control | [2] 108 % of control and 112 % of control | [3] 103 % of control | [4] 104 % of control and 110 % of control | dose: 400.0 mg/kg/injection, schedule: Q01DX009 (ip), vehicle: Klucel (hydroxypropylcellulose) (HPC) 109 % of control and 98 % of control

O=c1[nH]c(-c2cccc(-c3nnc(-c4ccccc4Cl)c(=O)[nH]3)c2)nnc1-c1ccccc1Cl
inactive: dose: 100.0 mg/kg/injection, schedule: Q04DX002 (ip), vehicle: Klucel (hydroxypropylcellulose) (HPC) 100 % of control | dose: 200.0 mg/kg/injection, schedule: Q04DX002 (ip), vehicle: Klucel (hydroxypropylcellulose) (HPC) 100 % of control | dose: 400.0 mg/kg/injection, schedule: Q04DX002 (ip), vehicle: Klucel (hydroxypropylcellulose) (HPC) 96 % of control

CCCCCCN(CCCCCC)CC(O)c1cc2c(c3ccccc13)CCCC2 (stereo not drawn)
inactive: [8] 94 % of control | [9] 103 % of control | [10] 103 % of control

COc1ccc2c(ccc3c(N)ncnc32)c1
inactive: dose: 100.0 mg/kg/injection, schedule: Q04DX002 (ip), vehicle: saline with Tween-80 92 % of control | dose: 200.0 mg/kg/injection, schedule: Q04DX002 (ip), vehicle: saline with Tween-80 103 % of control

C[C@@H]1C(=O)CC23COC(=O)C2=CCCC3[C@@]1(C)CCC1COC(=O)C1 (stereo partly drawn)
inactive: dose: 12.5 mg/kg/injection, schedule: Q01DX005 (ip), vehicle: distilled water + alcohol 100 % of control | dose: 25.0 mg/kg/injection, schedule: Q01DX005 (ip), vehicle: distilled water + alcohol 100 % of control | dose: 50.0 mg/kg/injection, schedule: Q01DX005 (ip), vehicle: distilled water + alcohol 106 % of control | dose: 60.0 mg/kg/injection, schedule: Q01DX005 (ip), vehicle: distilled water + alcohol 101 % of control | dose: 100.0 mg/kg/injection, schedule: Q01DX005 (ip), vehicle: distilled water + alcohol 107 % of control | dose: 120.0 mg/kg/injection, schedule: Q01DX005 (ip), vehicle: distilled water + alcohol 108 % of control | dose: 240.0 mg/kg/injection, schedule: Q01DX005 (ip), vehicle: distilled water + alcohol 110 % of control

CC1OC(OC2C(OC3C(OC4CCC5(C)C(CCC6(C)C5CC=C5C7CC(C)(C)CCC7(C(=O)O)CCC56C)C4(C)C)OCC(O)C3O)OC(CO)C(O)C2O)C(O)C(O)C1O (stereo not drawn)
inactive: dose: 3.75 mg/kg/injection, schedule: Q01DX005 (ip), vehicle: distilled water + Tween-80 98 % of control | dose: 7.5 mg/kg/injection, schedule: Q01DX005 (ip), vehicle: distilled water + Tween-80 100 % of control

COc1ccc(S(=O)(=O)/C(=C/c2ccccc2[N+](=O)[O-])C(=O)c2ccccc2)cc1
inactive: [8] 111 % of control | [9] 103 % of control | [10] 104 % of control

Cc1c(C)[n+](=O)c2ccc(/C=[N+](/[O-])CCO)cc2n1[O-]
inactive: [2] 99 % of control | [3] 99 % of control | [4] 107 % of control

Cc1ccc(NC2OC(CO)C(O)C2O)c([N+](=O)[O-])c1 (stereo not drawn)
inactive: dose: 100.0 mg/kg/injection, schedule: Q01DX001 (ip), vehicle: saline 108 % of control | dose: 200.0 mg/kg/injection, schedule: Q01DX001 (ip), vehicle: saline 97 % of control | dose: 400.0 mg/kg/injection, schedule: Q01DX001 (ip), vehicle: saline 99 % of control

O=C(CCCCCCCCC(=O)Nc1ccccc1)Nc1ccccc1
inactive: dose: 50.0 mg/kg/injection, schedule: Q01DX001 (ip), vehicle: saline with Tween-80 103 % of control | dose: 100.0 mg/kg/injection, schedule: Q01DX001 (ip), vehicle: saline with Tween-80 103 % of control | dose: 200.0 mg/kg/injection, schedule: Q01DX001 (ip), vehicle: saline with Tween-80 100 % of control | dose: 400.0 mg/kg/injection, schedule: Q01DX001 (ip), vehicle: saline with Tween-80 108 % of control

CC1C2OC(=O)C1(C)c1ccccc1C2=O (stereo not drawn)
inactive: dose: 12.5 mg/kg/injection, schedule: Q01DX001 (ip), vehicle: Klucel (hydroxypropylcellulose) (HPC) 109 % of control | dose: 25.0 mg/kg/injection, schedule: Q01DX001 (ip), vehicle: Klucel (hydroxypropylcellulose) (HPC) 99 % of control | dose: 50.0 mg/kg/injection, schedule: Q01DX001 (ip), vehicle: Klucel (hydroxypropylcellulose) (HPC) 103 % of control
